In patent US10106534B2 (CELGENE QUANTICEL RESEARCH, INC., priority 2014, dated 2018) one finds IC50 data, which are given here for 26 molecules.

The structures appear in SMILES notation. Counter-ions that a name gives are not always drawn.

The subject of assay [1] is KYSE-150 esophageal carcinoma cell line. The assay is described as follows: In vitro cell-based assay: cellular proliferation via BrdU incorporation (ELISA). Conditions: Homo sapiens, KYSE-150, 168 hours compound incubation. Set-up: species or system human. The method, then: The primary cellular assay for JMJD2C inhibition is an assay which measures cellular proliferation via Bromodeoxyuridine (BrdU) incorporation after 168 hours of compound incubation. Cell lines tested include the JMJD2C gene amplified cell line KYSE-150. This is a quantitative ELISA assay measuring DNA incorporation of BrdU during S-phase as a direct readout of cellular proliferation.
Assay Principle: This is a colorimetric immunoassay for the quantification of cell proliferation. Cells treated for 168 hours with test compounds are assayed for their ability to go through S-phase as a measure of their proliferative potential.
Assay Method: The human KYSE-150 (SMAD4 mut, TP53 mut) esophageal carcinoma cell line was seeded at 2,000 cells/well on a 96-well tissue culture treated plate. After an overnight incubation, cells were treated with compound in an 11-point dilution series with final concentrations ranging from 100 μM to 2 nM. Cells were then incubated in the presence of compound for 168 hours. After compound incubation the cells were assayed using a BrdU Cell Proliferation ELISA (Roche). The cells were first incubated with BrdU labeling reagent for 2 hours. After 2 hours, the BrdU incorporated cells were fixed and denatured, probed with an anti-BrdU-Peroxidase antibody for 1.5 hours and washed. Finally, a tetramethylbenzidine peroxidase substrate was added to each well for 15 minutes followed by a H2SO4 stop solution. The plate was read at 450 nm, and the raw optical density data was transferred into XLFit (IDBS) for IC50 calculation using the formula: fit=(D+((Vmax*(x^n))/((x^n)+(Km^n))))

Assay [2] concerns the target JMJD2C (Homo sapiens (Human), UniProt Q9H3R0). The assay is described as follows: In vitro enzyme inhibition assay for JMJD2C activity (TR-FRET). It counts as biochemical. The method, boiled down:
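Baculovirus JMJD2C (AA 2-372), 0.3 nM, with 300 nM biotin-H3K9me3 peptide and 2 μM α-ketoglutarate in HEPES pH 7.3 containing Fe(II) and ascorbate, 30 min at room temperature, 11-point dilutions. H3K9me2 product by TR-FRET (Eu-antibody/streptavidin-APC, 665/615 ratio); IC50 fitted.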

Sequence of JMJD2C (Q9H3R0 2-372): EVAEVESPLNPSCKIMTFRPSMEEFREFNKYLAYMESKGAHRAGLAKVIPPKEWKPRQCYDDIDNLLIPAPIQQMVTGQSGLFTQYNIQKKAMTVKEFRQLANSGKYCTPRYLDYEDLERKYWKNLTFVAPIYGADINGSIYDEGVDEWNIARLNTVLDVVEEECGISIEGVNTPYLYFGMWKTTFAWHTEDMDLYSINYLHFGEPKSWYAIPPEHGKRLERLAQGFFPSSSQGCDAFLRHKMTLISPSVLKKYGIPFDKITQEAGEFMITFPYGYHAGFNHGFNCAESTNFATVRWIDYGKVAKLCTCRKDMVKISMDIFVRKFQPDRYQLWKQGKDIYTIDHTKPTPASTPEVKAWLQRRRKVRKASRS

As to `O=C(O)c1ccncc1NC[C@@H]1CCCc2cc(Sc3ccc(F)cc3)ccc21` [Example 77, 3-({[(1R)-6-[(4-fluorophenyl)sulfanyl]-1,2,3,4-tetrahydronaphthalen-1-yl]methyl}amino)pyridine-4-carboxylic acid], the figures for the IC50 in assay [1] and in assay [2] were no more than 100 nM and 100 to 1000 nM, respectively.
`Cc1ccc(Sc2ccc3c(c2)CCC[C@H]3CNc2cnccc2C(=O)O)cc1` [Example 79, 3-({[(1R)-6-[(4-methylphenyl)sulfanyl]-1,2,3,4-tetrahydronaphthalen-1-yl]methyl}amino)pyridine-4-carboxylic acid]: the IC50 (usually the point on the concentration scale where inhibition reaches its midpoint) is no more than 100 nM in assay [1] and 1000 to 10000 nM in assay [2].
`O=C(O)c1ccncc1NCC1CCCc2cc(Sc3ccccn3)ccc21` (stereo not shown) [Example 80, 3-({[6-(pyridin-2-ylsulfanyl)-1,2,3,4-tetrahydronaphthalen-1-yl]methyl}amino)pyridine-4-carboxylic acid]: the IC50 lay in the range of 1000 to 10000 nM in assay [1] and 100 to 1000 nM in assay [2].
Turning to `O=C(O)c1ccncc1NC[C@@H]1CCCc2cc(S(=O)(=O)c3ccccc3)ccc21` [Example 82, 3-({[(1R)-6-(benzenesulfonyl)-1,2,3,4-tetrahydronaphthalen-1-yl]methyl}amino)pyridine-4-carboxylic acid], the IC50 was greater than 10000 nM in assay [1] and 100 to 1000 nM in assay [2].
As for `Cc1ccc(S(=O)(=O)c2ccc3c(c2)CCC[C@H]3CNc2cnccc2C(=O)O)cc1` [Example 84, 3-({[(1R)-6-(4-methylbenzenesulfonyl)-1,2,3,4-tetrahydronaphthalen-1-yl]methyl}amino)pyridine-4-carboxylic acid], the IC50 in assay [1] was greater than 10000 nM; in assay [2], 100 to 1000 nM.
For `Cc1cccc(S(=O)(=O)c2ccc3c(c2)CCC[C@H]3CNc2cnccc2C(=O)O)c1` [Example 86, 3-({[(1R)-6-(3-methylbenzenesulfonyl)-1,2,3,4-tetrahydronaphthalen-1-yl]methyl}amino)pyridine-4-carboxylic acid] the same measures were greater than 10000 nM and 100 to 1000 nM.
Consider `O=C(O)c1ccncc1NCC1CCCc2cc(C3CCOCC3)ccc21` (stereo not shown) [Example 88, 3-({[6-(oxan-4-yl)-1,2,3,4-tetrahydronaphthalen-1-yl]methyl}amino)pyridine-4-carboxylic acid], for which the IC50 in assay [1] is greater than 10000 nM; in assay [2], 100 to 1000 nM.
Turning to `Cc1cc(-c2ccc3c(c2)CCCC3CNc2cnccc2C(=O)O)ccn1` (stereo not shown) [Example 89, 3-({[6-(2-methylpyridin-4-yl)-1,2,3,4-tetrahydronaphthalen-1-yl]methyl}amino)pyridine-4-carboxylic acid, hydrochloride], the values for the IC50 in assay [1] and in assay [2] were greater than 10000 nM and 100 to 1000 nM, respectively.
For `CCc1ccc2c(c1)CCC[C@H]2CNc1cnccc1C(=O)O` [Example 91, 3-({[(1R)-6-ethyl-1,2,3,4-tetrahydronaphthalen-1-yl]methyl}amino)pyridine-4-carboxylic acid], in that order: 1000 to 10000 nM and 100 to 1000 nM.
Regarding `O=C(O)c1ccncc1NCC1CCCc2c1ccc1c2OCC1` (stereo not shown) [Example 92, 3-({2H,3H,6H,7H,8H,9H-naphtho[1,2-b]furan-6-ylmethyl}amino)pyridine-4-carboxylic acid], the IC50 is 1000 to 10000 nM in assay [1] and 100 to 1000 nM in assay [2].
For `Cc1cc2c(cc1C)C(CNc1cnccc1C(=O)O)CCO2` (stereo not shown) [Example 93, 3-{[(6,7-dimethyl-3,4-dihydro-2H-1-benzopyran-4-yl)methyl]amino}pyridine-4-carboxylic acid], the IC50 in assay [1] lay in the range of 1000 to 10000 nM; in assay [2] it was 100 to 1000 nM.
For `COc1cc2c(cc1C)C(CNc1cnccc1C(=O)O)CCC2` (stereo not shown) [Example 94, 3-{[(6-methoxy-7-methyl-1,2,3,4-tetrahydronaphthalen-1-yl)methyl]amino}pyridine-4-carboxylic acid], the half-inhibitory concentration (IC50) in assay [1] and in assay [2] was 100 to 1000 nM in each case.
As to `COc1cc2c(c(OC)c1)C(CNc1cnccc1C(=O)O)CCC2` (stereo not shown) [Example 95, 3-{[(6,8-dimethoxy-1,2,3,4-tetrahydronaphthalen-1-yl)methyl]amino}pyridine-4-carboxylic acid], the 50% inhibitory concentration (IC50) in assay [1] is greater than 10000 nM; in assay [2] it was 100 to 1000 nM.
As for `COc1cc2c(cc1F)[C@H](CNc1cnccc1C(=O)O)CCC2` [Example 97, 3-({[(1R)-7-fluoro-6-methoxy-1,2,3,4-tetrahydronaphthalen-1-yl]methyl}amino)pyridine-4-carboxylic acid], the IC50 in assay [1] lay in the range of 1000 to 10000 nM; in assay [2] it was 100 to 1000 nM.
For `Cc1ccccc1-c1ccc2c(c1)OCC[C@H]2CNc1cnccc1C(=O)O` [Example 101, 3-({[(4R)-7-(2-methylphenyl)-3,4-dihydro-2H-1-benzopyran-4-yl]methyl}amino)pyridine-4-carboxylic acid] the same measures were no more than 100 nM and 100 to 1000 nM.
`COc1ccc(F)cc1-c1ccc2c(c1)OCC[C@H]2CNc1cnccc1C(=O)O` [Example 102, 3-({[(4R)-7-(5-fluoro-2-methoxyphenyl)-3,4-dihydro-2H-1-benzopyran-4-yl]methyl}amino)pyridine-4-carboxylic acid]: the IC50 in assay [1] and in assay [2] was 100 to 1000 nM throughout.
For `CN(c1ccc(C#N)cc1)c1ccc2c(c1)CCC[C@H]2CNc1cnccc1C(=O)O` [Example 103, 3-({[(1R)-6-[(4-cyanophenyl)(methyl)amino]-1,2,3,4-tetrahydronaphthalen-1-yl]methyl}amino)pyridine-4-carboxylic acid], the half-maximal inhibitory concentration (IC50) in assay [1] and in assay [2] was 100 to 1000 nM throughout.
Take `CN(c1ccc2c(c1)OCC[C@H]2CNc1cnccc1C(=O)O)c1ccc(F)cc1F` [Example 104, 3-({[(4R)-7-[(2,4-difluorophenyl)(methyl)amino]-3,4-dihydro-2H-1-benzopyran-4-yl]methyl}amino)pyridine-4-carboxylic acid]: the concentration for half-maximal inhibition (IC50) in assay [1] and in assay [2] was 100 to 1000 nM each time.
Consider `Cc1cccc(N(C)c2ccc3c(c2)OCC[C@H]3CNc2cnccc2C(=O)O)c1` [Example 105, 3-({[(4R)-7-[methyl(3-methylphenyl)amino]-3,4-dihydro-2H-1-benzopyran-4-yl]methyl}amino)pyridine-4-carboxylic acid], for which the IC50 is no more than 100 nM in assay [1] and 100 to 1000 nM in assay [2].
`O=C(O)c1ccncc1NC[C@@H]1CCCc2cc(N3CCCC3)ccc21` [Example 106, 3-({[(1R)-6-(pyrrolidin-1-yl)-1,2,3,4-tetrahydronaphthalen-1-yl]methyl}amino)pyridine-4-carboxylic acid]: the IC50 in assay [1] and in assay [2] was 100 to 1000 nM in each case.
For the molecule `CN(c1cc(F)cc(F)c1)c1ccc2c(c1)OCC[C@H]2CNc1cnccc1C(=O)O` [Example 109, 3-({[(4R)-7-[(3,5-difluorophenyl)(methyl)amino]-3,4-dihydro-2H-1-benzopyran-4-yl]methyl}amino)pyridine-4-carboxylic acid], the half-maximal inhibitory concentration (IC50) in assay [1] and in assay [2] was 100 to 1000 nM throughout.
`CN(c1cccc(Cl)c1)c1ccc2c(c1)OCC[C@H]2CNc1cnccc1C(=O)O` [Example 110, 3-({[(4R)-7-[(3-chlorophenyl)(methyl)amino]-3,4-dihydro-2H-1-benzopyran-4-yl]methyl}amino)pyridine-4-carboxylic acid]: the IC50 in assay [1] is no more than 100 nM; in assay [2], 1000 to 10000 nM.
For `Cc1ccccc1N(C)c1ccc2c(c1)OCC[C@H]2CNc1cnccc1C(=O)O` [Example 111, 3-({[(4R)-7-[methyl(2-methylphenyl)amino]-3,4-dihydro-2H-1-benzopyran-4-yl]methyl}amino)pyridine-4-carboxylic acid], in that order: 100 to 1000 nM and 100 to 1000 nM.
Take `COc1cc(N(C)c2ccc3c(c2)OCC[C@H]3CNc2cnccc2C(=O)O)ccc1F` [Example 112, 3-({[(4R)-7-[(4-fluoro-3-methoxyphenyl)(methyl)amino]-3,4-dihydro-2H-1-benzopyran-4-yl]methyl}amino)pyridine-4-carboxylic acid]: the 50% inhibitory concentration (IC50) was in the range of 1000 to 10000 nM in assay [1] and 100 to 1000 nM in assay [2].
In the case of `COc1cc(N(C)c2ccc3c(c2)CCC[C@H]3CNc2cnccc2C(=O)O)ccc1F` [Example 114, 3-({[(1R)-6-[(4-fluoro-3-methoxyphenyl)(methyl)amino]-1,2,3,4-tetrahydronaphthalen-1-yl]methyl}amino)pyridine-4-carboxylic acid], the IC50 in assay [1] and in assay [2] was 100 to 1000 nM in each case.
Take `CN(c1cccc(C#N)c1)c1ccc2c(c1)CCC[C@H]2CNc1cnccc1C(=O)O` [Example 115, 3-({[(1R)-6-[(3-cyanophenyl)(methyl)amino]-1,2,3,4-tetrahydronaphthalen-1-yl]methyl}amino)pyridine-4-carboxylic acid]: the IC50 in assay [1] and in assay [2] was 100 to 1000 nM throughout.
